# Source: US20250360160A1, “NEW MEDICAL USE OF TAFOXIPARIN” (DILAFOR AB, priority 2022, published 2025)
# Tested on: term pregnant, nulliparous women with an unripe cervix
# Assay: Clinical phase II trial PPL17 (Parts A and B), subcutaneous tafoxiparin vs placebo
# Assay type: in vivo, human
# Details: for Labor induced with PGE-1, percent of subjects: placebo 10.2%; for Fetal distress as indication for operative delivery (ODFD), percent of patients: placebo 22.7%; for Percent of patients with operative delivery / proportion of women needing instrumental delivery: placebo 45.5%; for Labor induced with oxytocin, percent of subjects / proportion of women reaching spontaneous onset of labor with uncomplicated delivery: placebo 54.5%; for Labor induced with amniotomy, percent of subjects: placebo 56.8%; for Labor induction with Balloon catheter, percent of subjects: placebo 58.0%; for Labor induced, percent of subjects: placebo 70.5%; for number of women needing instrumental delivery: spontaneous onset of labor; for proportion reaching partus by vaginal delivery with no need for instrumental delivery nor caesarian section: placebo 48%; for proportion reaching partus by vaginal delivery with no need for instrumental delivery nor caesarian section / proportion of women needing instrumental delivery or caesarian section to reach partus: FIG. 5; for proportion of women needing instrumental delivery or caesarian section to reach partus: placebo 52%; for proportion of women needing instrumental delivery: vaginal mode of partus, FIG. 4; for number of subjects (women) that reach spontaneous onset of labor / percent of subjects (women) that reach spontaneous onset of labor: n=37
# Experimental: A clinical phase II trial is performed as a randomized, double-blind, placebo-controlled, parallel-group proof of concept study (Part A) with a conditional dose finding follow up study (Part B) to evaluate the efficacy, safety, tolerability and dose response of subcutaneously administered tafoxiparin as a supplement to induction therapy in term pregnant, nulliparous women with an unripe cervix. The study is performed in Sweden and Finland (PPL17), and an EMA (European Medicines Agency) description of the study can be found on the EU Clinical Trials Register web (www.clinicaltrialsregister.eu/ctr-search/search?query=PPL17).
# A total of 170 term pregnant women are randomized to receive either 300 mg of tafoxiparin, or corresponding placebo (vehicle), administered subcutaneously every 24±3 hours and up to a total of 7 doses, or until partus (Part A).
# In the dose finding follow up study (Part B), a total of 164 term pregnant women are randomized to receive either 75 or 150 mg of tafoxiparin administered subcutaneously every 24±3 hours […] and up to a total of 7 doses, or until partus.
# To assess the efficacy of tafoxiparin on cervical ripening/cervical ripening rate, during and up to the first seven days of treatment, measured by Bishop score. All women must be examined to check the cervical state before enrollment.
# Time from start of treatment to increase in Bishop score of ≥2 points or spontaneous onset of labor, whichever comes first. Time from start of treatment to increase in Bishop score of ≥3 points or spontaneous onset of labor, whichever comes first. Time from start of treatment to increase in Bishop score of ≥4 points or spontaneous onset of labor, whichever comes first.
# Cervical ripening as measured by change from baseline to end of treatment in Bishop Score. Time from onset of labor to partus, where onset of labor is defined as last record of 4 cm cervical dilatation visualized in the partogram and progress of labor, or last record of 4 cm of cervical dilatation in combination with amniotomy and intravenous administration oxytocin.
# Proportion of women with spontaneous onset of labor (Response group I).
# Tafoxiparin/Placebo is supplied by Dilafor AB to the site as kits designed to constitute 300 mg of tafoxiparin or placebo for daily administration. Apart from the active substance, each ml of study drug will constitute 0.015 M phosphate buffer. The study medication kit for each patient will contain 8 doses consisting of 2 vials containing a minimum extractable volume of 1.6 ml of 150 mg/ml of tafoxiparin or placebo. One dose is a reserve dose in case a dose is rendered unusable. The investigational product should be administered subcutaneously every 24±3hours by the site staff for up to 7 doses, or until partus. At each dosing time 1.0 ml of the drug will be extracted from each of the 2 vials and injected as separate s.c. injections in the abdominal or hip region.
# Tafoxiparin/Placebo is supplied by Dilafor AB to the site as kits designed to constitute 75 or 150 mg of tafoxiparin for daily administration. Apart from the active substance, each ml of study drug will constitute 0.015 M phosphate buffer. The study medication kit for each patient will contain 8 doses consisting of 2 vials for each injection occasion containing a minimum extractable volume of 1.6 ml of 150 mg/ml of tafoxiparin or placebo. For subjects receiving 75 mg of tafoxiparin, one vial will contain active substance and one containing placebo. For subjects receiving 150 mg of tafoxiparin, both vials will contain active substance. One dose is a reserve dose in case a dose is rendered unusable. The investigational product should be administered subcutaneously every 24±3 hours by the site staff for up to 7 doses, or until partus. At each dosing time, 0.5 ml of the drug will be extracted from each of the 2 vials and injected as separate s.c. injections in the abdominal or hip region. […]
# [1] = 150 mg, n = 85, listed as tafoxiparin
# [2] = 150 mg, women with spontaneous onset of labor, of 36
# [3] = 300 mg, n = 91, listed as tafoxiparin
# [4] = 300 mg, women with spontaneous onset of labor, of 37
substance,measurement,setting,value
tafoxiparin,"Labor induced with PGE-1, percent of subjects",[1],8.2%
same,"Fetal distress as indication for operative delivery (ODFD), percent of patients","150 mg, n = 85",23.5%
same,Percent of patients with operative delivery,"150 mg, n = 85",48.2%
same,"Labor induced with oxytocin, percent of subjects","150 mg, n = 85",(44.7%)
same,"Labor induced with oxytocin, percent of subjects",[1],44.7%
same,"Labor induced with amniotomy, percent of subjects","150 mg, n = 85",(45.9%)
same,"Labor induced with amniotomy, percent of subjects",[1],45.9%
same,"Labor induction with Balloon catheter, percent of subjects","150 mg, n = 85",(43.5%)
same,"Labor induction with Balloon catheter, percent of subjects",[1],43.5%
same,"Labor induced, percent of subjects","150 mg, n = 85",(56.5%)
same,"Labor induced, percent of subjects",[1],56.5%
same,number of women reaching spontaneous onset of labor with uncomplicated delivery,"150 mg, of 32 women",23 women
same,proportion of women reaching spontaneous onset of labor with uncomplicated delivery,"150 mg, of 32 women",71.9%
same,number of women needing instrumental delivery or caesarian section to reach partus,"150 mg, of 36 women",13 women
same,number reaching partus by vaginal delivery with no need for instrumental delivery nor caesarian section,"150 mg, of 36 women",23 women
same,number of women achieving spontaneous onset of labor,"150 mg, of 85 women",36 women
same,number of women needing instrumental delivery,"150 mg, of 32 women",9 women
same,proportion reaching partus by vaginal delivery with no need for instrumental delivery nor caesarian section,[2],63.9%
same,proportion of women needing instrumental delivery or caesarian section to reach partus,[2],36.1%
same,proportion of women needing instrumental delivery,"150 mg, women with spontaneous onset of labor, of 32, p 0.422",28.1%
same,time point of spontaneous onset of labor (change of Bishop score),"300 mg and 150 mg vs 75 mg and placebo, FIG. 3",achieved spontaneous onset of labor at an earlier time point
same,proportion of women achieving spontaneous onset of labor,"300 mg daily s.c., of 90 women, p=0.089, placebo 28.7%, FIG. 1",41.1%
same,number of subjects (women) that reach spontaneous onset of labor,"300 mg, Study day 1",2
same,percent of subjects (women) that reach spontaneous onset of labor,"300 mg, Study day 1",(5%)
same,number of subjects (women) that reach spontaneous onset of labor,"300 mg, Study day 2",11
same,percent of subjects (women) that reach spontaneous onset of labor,"300 mg, Study day 2",(30%)
same,number of subjects (women) that reach spontaneous onset of labor,"300 mg, Study day 3",18
same,percent of subjects (women) that reach spontaneous onset of labor,"300 mg, Study day 3",(49%)
same,number of subjects (women) that reach spontaneous onset of labor,"300 mg, Study day 4",23
same,percent of subjects (women) that reach spontaneous onset of labor,"300 mg, Study day 4",(62%)
same,number of subjects (women) that reach spontaneous onset of labor,"300 mg, Study day 5",30
same,percent of subjects (women) that reach spontaneous onset of labor,"300 mg, Study day 5",(81%)
same,number of subjects (women) that reach spontaneous onset of labor,"300 mg, Study day 6",34
same,percent of subjects (women) that reach spontaneous onset of labor,"300 mg, Study day 6",(92%)
same,number of subjects (women) that reach spontaneous onset of labor,"300 mg, Study day 7",37
same,percent of subjects (women) that reach spontaneous onset of labor,"300 mg, Study day 7",(100%)
same,"Fetal distress as indication for operative delivery (ODFD), number of patients","300 mg, n = 91",11
same,"Labor induced with PGE-1, number of subjects","300 mg, n = 91",5
same,"Labor induced with amniotomy, number of subjects","300 mg, n = 91",50
same,"Labor induced with oxytocin, number of subjects","300 mg, n = 91",45
same,"Labor induction with Balloon catheter, number of subjects","300 mg, n = 91",42
same,"Labor induced, number of subjects","300 mg, n = 91, onset of labor with intervention",53
same,"Labor induced with PGE-1, percent of subjects","300 mg, n = 91",(5.5%)
same,"Labor induced with PGE-1, percent of subjects",[3],5.5%
same,"Fetal distress as indication for operative delivery (ODFD), percent of patients","300 mg, n = 91",12.1%
same,Percent of patients with operative delivery,"300 mg, n = 91",35.2%
same,"Labor induced with oxytocin, percent of subjects","300 mg, n = 91",(49.5%)
same,"Labor induced with oxytocin, percent of subjects",[3],49.5%
same,"Labor induced with amniotomy, percent of subjects","300 mg, n = 91",(54.9%)
same,"Labor induced with amniotomy, percent of subjects",[3],54.9%
same,"Labor induction with Balloon catheter, percent of subjects","300 mg, n = 91",(46.2%)
same,"Labor induction with Balloon catheter, percent of subjects",[3],46.2%
same,"Labor induced, percent of subjects","300 mg, n = 91",(58.2%)
same,"Labor induced, percent of subjects",[3],58.2%
same,number of women reaching spontaneous onset of labor with uncomplicated delivery,"300 mg, of 33 women",27 women
same,proportion of women reaching spontaneous onset of labor with uncomplicated delivery,"300 mg, of 33 women",81.8%
same,number of women needing instrumental delivery or caesarian section to reach partus,"300 mg, of 37 women",10 women
same,number reaching partus by vaginal delivery with no need for instrumental delivery nor caesarian section,"300 mg, of 37 women",27 women
same,number of women achieving spontaneous onset of labor,"300 mg, of 90 women",37 women
same,number of women needing instrumental delivery,"300 mg, of 33 women",6 women
same,proportion reaching partus by vaginal delivery with no need for instrumental delivery nor caesarian section,[4],73%
same,proportion of women needing instrumental delivery or caesarian section to reach partus,[4],27%
same,proportion of women needing instrumental delivery,"300 mg, women with spontaneous onset of labor, of 33, p=0.048",18.2%
same,achieving spontaneous onset of labor (conclusion),"all three doses 300 mg, 150 mg and 75 mg",effective for achieving spontaneous onset of labor
same,mode of partus (conclusion),"all three doses 300 mg, 150 mg and 75 mg, compared to placebo",effective for a person to reach partus by vaginal delivery and with less need for instrumental delivery or caesarian section
same,need for instrumental delivery (conclusion),"all three doses (300 mg, 150 mg and 75 mg), women with spontaneous onset of labor, vs placebo",effective in reducing the need for instrumental delivery
same,need for intervention to achieve onset of labor (conclusion),"all three doses, compared to placebo",reduced the need for intervention in order to achieve onset of labor
same,effect on cervical ripening,"doses 300 mg and 150 mg, FIG. 3",beneficial effect on cervical ripening
same,estimated cervical ripening rate measured by Bishop score,"first 7 days of treatment, all three doses (300 mg, 150 mg and 75 mg) compared to placebo, FIG. 6",higher
same,labor time up to vaginal delivery (partus),"women with spontaneous onset of labor, 300 mg (p=0.070), 150 mg (p 0.654), 75 mg (p 0.114) vs placebo, FIG. 2",shorter labor time up to vaginal delivery (partus) compared to placebo
